Literature values as cited in patent US20230255882A1, “LONG-LASTING RESORBABLE SUBCUTANEOUS IMPLANT WITH SUSTAINED RELEASE OF PRE-CONCENTRATED PHARMACOLOGICALLY ACTIVE SUBSTANCE IN POLYMER FOR THE TREATMENT OF PARKINSONS DISEASE” (priority 2020, published 2023).

Tested on: Parkinson's disease
Conditions: intramuscular injection, 25 mg twice a week

## NC(=O)C1=CN([C@@H]2O[C@H](COP(=O)(O)OP(=O)(O)OC[C@H]3O[C@@H](n4cnc5c(N)ncnc54)[C@H](OP(=O)(O)O)[C@@H]3O)[C@@H](O)[C@H]2O)C=CC1 [NADPH]
  motor symptoms: significant improvement in motor symptoms
